Measurements published in the supplement of paper PMC6461962.

Experiments:
[1] = system: Rhodanobacter sp. FW104-10B01
In short: (§1)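 Growth was read as OD600 at 24 h, or at 48 h for R2A strain comparisons, after washed cells at a final OD600 of 0.02 (80 µL) were added to 384-well plates holding serially diluted inorganic ion salts or equimolar nitrilotriacetic acid complexes. Aerobic plates were shaken at 700 rpm at 30 °C, but anaerobic plates were not. IC50 was calculated with the drc R package from at least two biological replicate curves, scaled between water and growth-blocking antibiotic controls and excluding wells with precipitate.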

[2] = system: Pseudomonas fluorescens FW300-N2E2
In short: as §1

[3] = medium / electron acceptor: 10B01 R2A/aerobic
[4] = medium / electron acceptor: 10B01 R2A/nitrate
[5] = medium / electron acceptor: N2E2 Glucose/aerobic
[6] = medium / electron acceptor: N2E2 Glucose/aerobic 0.25xMinerals
[7] = medium / electron acceptor: N2E2 Glucose/aerobic (2)
[8] = medium / electron acceptor: N2E2 KB/aerobic
[9] = medium / electron acceptor: N2E2 LB/aerobic
[10] = medium / electron acceptor: N2E2 LB/aerobic (2)
[11] = medium / electron acceptor: N2E2 LB/nitrate
[12] = medium / electron acceptor: N2E2 Lactate/aerobic
[13] = medium / electron acceptor: N2E2 R2A/aerobic

Row | Compound | IC50 growth inhibition [1, 3] | IC50 growth inhibition [1, 4] | IC50 growth inhibition [2, 5] | IC50 growth inhibition [2, 6] | IC50 growth inhibition [2, 7] | IC50 growth inhibition [2, 8] | IC50 growth inhibition [2, 9] | IC50 growth inhibition [2, 10] | IC50 growth inhibition [2, 11] | IC50 growth inhibition [2, 12] | IC50 growth inhibition [2, 13]
1 | O=[Se]([O-])[O-].[Na+].[Na+] [Sodium selenite pentahydrate] | 250 mM | 112 mM | < 0.244 mM | < 0.244 mM | < 0.244 mM | < 0.244 mM | < 0.244 mM | < 0.244 mM | 250 mM | < 0.244 mM | < 0.244 mM
2 | [O-][Cl+2]([O-])O [Sodium Chlorate] | 355 mM | < 0.244 mM | 9.21 mM | 8.75 mM | 0.387 mM | 5.02 mM | 24.5 mM | 54.4 mM | 4.33 mM | 15.7 mM | 45.9 mM
3 | [Cl-].[Rb+] [rubidium chloride] | 354 mM | > 500 mM | 17.4 mM | 251 mM | 15.7 mM | 349 mM | 387 mM | 384 mM | 284 mM | 168 mM | > 500 mM
4 | O.O.O.O.O.O.[Al+3].[Cl-].[Cl-].[Cl-] [Aluminum chloride hydrate] | 3.54 mM | > 5 mM | > 5 mM | 0.409 mM | > 5 mM | > 5 mM | > 5 mM | > 5 mM | 4.64 mM | > 5 mM | 0.227 mM
5 | [O-][Cl+3]([O-])([O-])O [Sodium perchlorate monohydrate] | 354 mM | 5.54 mM | 67.2 mM | 356 mM | 117 mM | 82 mM | 95 mM | 106 mM | 69.8 mM | 235 mM | 89.4 mM
6 | [K+].[K+].[O]=[Cr](=[O])([O-])[O-] [Potassium chromate] | 0.123 mM | < 0.244 mM | < 0.244 mM | < 0.244 mM | < 0.244 mM | < 0.244 mM | < 0.244 mM | < 0.244 mM | 31 mM | < 0.244 mM | 0.0094 mM
7 | O.O.O.O.O.O.[Cl][Cr]([Cl])[Cl] [Chromium(III) Chloride Hexahydrate] | 2.16 mM | 3.46 mM | < 0.00244 mM | < 0.00244 mM | < 0.00244 mM | > 5 mM | 4.91 mM | 4.91 mM | > 5 mM | < 0.00244 mM | 0.322 mM
8 | [Na+].[O]=[V](=[O])[O-] [Sodium metavanadate] | > 50 mM | > 50 mM | 0.0793 mM | 0.432 mM | 0.0997 mM | < 0.0244 mM | 3.26 mM | 13.4 mM | 6.94 mM | 2.34 mM | 8.62 mM
9 | [Cl][Ag] [silver chloride] | > 0.5 mM | > 0.5 mM | 0.139 mM | > 0.5 mM | > 0.5 mM | > 0.5 mM | > 0.5 mM | > 0.5 mM | > 0.5 mM | 0.154 mM | > 0.5 mM
10 | O.O.O.O.O.O.[Cl][Ni][Cl] [Nickel (II) chloride hexahydrate] | 1.03 mM | 1.82 mM | 0.0112 mM | 0.00556 mM | 0.0143 mM | 3.92 mM | 3.59 mM | > 5 mM | > 5 mM | 0.0276 mM | 0.221 mM
11 | O=S([O-])[O-].[Na+].[Na+] [sodium sulfite] | > 500 mM | 2 mM | 0.261 mM | 0.391 mM | 0.45 mM | < 0.244 mM | 7.58 mM | 1.7 mM | 1.12 mM | < 0.244 mM | 31.7 mM
12 | [Cl][Pb][Cl] [lead (II) chloride] | > 5 mM | > 5 mM | > 5 mM | 0.0379 mM | > 5 mM | > 5 mM | > 5 mM | > 5 mM | > 5 mM | > 5 mM | 0.14 mM
13 | [Cl-].[Na+] [Sodium Chloride] | 708 mM | 545 mM | 699 mM | 708 mM | 603 mM | 660 mM | 708 mM | 718 mM | 622 mM | 707 mM | 671 mM
14 | O.O.O.O.O.O.O.O=[As]([O-])([O-])O.[Na+].[Na+] [Sodium arsenate dibasic heptahydrate] | > 500 mM | > 500 mM | < 0.244 mM | < 0.244 mM | < 0.244 mM | < 0.244 mM | < 0.244 mM | < 0.244 mM | 5.13 mM | < 0.244 mM | 0.874 mM
15 | O=P[O-].[Na+] [Sodium hypophosphite monohydrate] | 354 mM | 171 mM | 354 mM | 451 mM | 146 mM | 380 mM | 354 mM | > 500 mM | 306 mM | 354 mM | > 500 mM
16 | O.O.O.O.O.O.O.O.O.O.O=S(=O)([O-])[O-].[Na+].[Na+] [Sodium sulfate] | 354 mM | 317 mM | 356 mM | > 500 mM | > 500 mM | > 500 mM | 455 mM | > 500 mM | 311 mM | 384 mM | 183 mM
